SMILES strings stand for the structures.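 Cultured in 96-well plates, cells were exposed to test compound for 48 hours across five concentrations. TGI marks complete inhibition of growth.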

Some test systems named below: COLO 205 colon; IGROV1 ovarian; MOLT-4 leukemia; NCI-H226 lung; NCI-H522 lung; PC-3 prostate; SK-MEL-28 melanoma; SNB-75 CNS; SR leukemia; U251 CNS.
Test in all cases: NCI anticancer screen, dose series, 48 h

Take `COc1cccc(-c2cc(=O)c3ccc(C)nc3[nH]2)c1`: the TGI in the assay with COLO 205 colon was 247 nM; in the assay with IGROV1 ovarian, over 95.1 µM; in the assay with MOLT-4 leukemia it was over 94.7 µM; with NCI-H226 lung it was 291 nM; in the assay with NCI-H522 lung, over 100 µM; in the assay with PC-3 prostate, over 42 µM. For the same compound, the TGI in the assay with SK-MEL-28 melanoma is over 100 µM; with SNB-75 CNS it was 49.6 nM; in the assay on SR leukemia it was 50.3 nM; with U251 CNS, over 100 µM.
In the case of `O=c1[nH]c2cc3[nH]c4ncccc4c(=O)c3cc2[nH]1`, the TGI with COLO 205 colon is over 10000 nM; in the assay on IGROV1 ovarian it was over 10 µM; in the assay on MOLT-4 leukemia, over 10 µM; in the assay with NCI-H226 lung, over 10000 nM; with NCI-H522 lung it was over 10 µM; in the assay on PC-3 prostate, over 10 µM. The TGI with SK-MEL-28 melanoma was over 10 µM; with SNB-75 CNS it was over 10000 nM; in the assay on SR leukemia, over 10000 nM; in the assay on U251 CNS, over 10 µM.

The record behind these values is PubChem BioAssay (NCI).
